# Tested on: MV-4-11 cells
# Test: Gene expression microarray analysis (Affymetrix PrimeView) and GSEA
# Format: cell-based, human
# Set-up: RFU PODN (11730768_x_at) / Fold change /veh PODN (11730768_x_at) / RFU LINC00158 (11744669_a_at) / Fold change /veh LINC00158 (11744669_a_at) / RFU DUSP10 (11751237_a_at) / Fold change /veh DUSP10 (11751237_a_at) / RFU ID3 (11757404_x_at) / Fold change /veh ID3 (11757404_x_at) / RFU PLEKHG5 (11737974_s_at) / Fold change /veh PLEKHG5 (11737974_s_at) / RFU LRRC4B (11730491_at) / Fold change /veh LRRC4B (11730491_at) / RFU GIMAP4 (11747438_a_at) / Fold change /veh GIMAP4 (11747438_a_at) / RFU KRT8 (11758183_x_at) / Fold change /veh KRT8 (11758183_x_at) / RFU CNN1 (11734310_a_at) / Fold change /veh CNN1 (11734310_a_at) / RFU VPS37D (11726825_at) / Fold change /veh VPS37D (11726825_at) / RFU C10orf10 (11716522_x_at) / Fold change /veh C10orf10 (11716522_x_at) / RFU KIR2DL2 /// KIR2DL4 /// KIR2DL5A /// KIR2DL5B /// KIR2DS1 /// KIR2DS2 /// KIR2DS3 /// KIR2DS4 /// KIR3DL3 /// KIR3DL3 /// KIR3DS1 (11738374_at) / Fold change /veh KIR2DL2 /// KIR2DL4 /// KIR2DL5A /// KIR2DL5B /// KIR2DS1 /// KIR2DS2 /// KIR2DS3 /// KIR2DS4 /// KIR3DL3 /// KIR3DL3 /// KIR3DS1 (11738374_at) / RFU C1QL1 (11718748_at) / Fold change /veh C1QL1 (11718748_at) / RFU TMPRSS4 (11747572_a_at) / Fold change /veh TMPRSS4 (11747572_a_at) / RFU HAMP (11756126_x_at) / Fold change /veh HAMP (11756126_x_at) / RFU RNFT2 (11725882_a_at) / Fold change /veh RNFT2 (11725882_a_at) / RFU NR4A2 (11747474_a_at) / Fold change /veh NR4A2 (11747474_a_at) / RFU ABCC12 (11746883_a_at) / Fold change /veh ABCC12 (11746883_a_at) / RFU TMEM136 (11760407_x_at) / Fold change /veh TMEM136 (11760407_x_at) / RFU CLDN22 /// WWC2 (11732394_at) / Fold change /veh CLDN22 /// WWC2 (11732394_at) / RFU HLA-DPB1 (11760878_x_at) / Fold change /veh HLA-DPB1 (11760878_x_at) / RFU SPINT1 (11716480_a_at) / Fold change /veh SPINT1 (11716480_a_at) / RFU GAP43 (11754022_s_at) / Fold change /veh GAP43 (11754022_s_at) / RFU A4GNT (11735810_at) / Fold change /veh A4GNT (11735810_at) / RFU PRB3 (11715151_x_at) / Fold change /veh PRB3 (11715151_x_at) / RFU TUBB4B (11761932_at) / Fold change /veh TUBB4B (11761932_at) / RFU CAPN14 (11732068_a_at) / Fold change /veh CAPN14 (11732068_a_at) / RFU TMCC2 (11721928_a_at) / Fold change /veh TMCC2 (11721928_a_at) / RFU IRGQ (11745062_a_at) / Fold change /veh IRGQ (11745062_a_at) / RFU FAM174B (11720279_a_at) / Fold change /veh FAM174B (11720279_a_at) / RFU TMPRSS4 (11748680_a_at) / Fold change /veh TMPRSS4 (11748680_a_at) / RFU FAM212B (11763350_a_at) / Fold change /veh FAM212B (11763350_a_at) / RFU PLEKHG5 (11743358_a_at) / Fold change /veh PLEKHG5 (11743358_a_at) / RFU ZSCAN30 (11745921_a_at) / Fold change /veh ZSCAN30 (11745921_a_at) / RFU CMKLR1 (11741424_a_at) / Fold change /veh CMKLR1 (11741424_a_at) / RFU LOC101060620 /// MAPK8IP1 (11723275_at) / Fold change /veh LOC101060620 /// MAPK8IP1 (11723275_at) / RFU SPTSSB (11747773_x_at) / Fold change /veh SPTSSB (11747773_x_at) / RFU PRSS12 (11739890_at) / Fold change /veh PRSS12 (11739890_at) / RFU BIN1 (11741810_x_at) / Fold change /veh BIN1 (11741810_x_at) / RFU WNT11 (11732464_a_at) / Fold change /veh WNT11 (11732464_a_at) / RFU C10orf10 (11716521_a_at) / Fold change /veh C10orf10 (11716521_a_at) / RFU C5orf56 (11738089_at) / Fold change /veh C5orf56 (11738089_at) / RFU CYB561 (11721691_x_at) / Fold change /veh CYB561 (11721691_x_at) / RFU ANKRD19P (11752326_a_at) / Fold change /veh ANKRD19P (11752326_a_at) / RFU OR2T12 /// OR2T33 /// OR2T8 (11738714_s_at) / Fold change /veh OR2T12 /// OR2T33 /// OR2T8 (11738714_s_at) / RFU VCAN (11748164_a_at) / Fold change /veh VCAN (11748164_a_at) / RFU JSRP1 (11732532_at) / Fold change /veh JSRP1 (11732532_at) / RFU KRTAP10-11 (11738290_x_at) / Fold change /veh KRTAP10-11 (11738290_x_at) / RFU MYO3A (11730013_a_at) / Fold change /veh MYO3A (11730013_a_at) / RFU EBF3 (11725865_a_at) / Fold change /veh EBF3 (11725865_a_at) / RFU CAMK2N1 (11719241_x_at) / Fold change /veh CAMK2N1 (11719241_x_at) / RFU C5orf56 (11738088_a_at) / Fold change /veh C5orf56 (11738088_a_at) / RFU OLFML3 (11715873_a_at) / Fold change /veh OLFML3 (11715873_a_at) / RFU LOC100653217 /// NTM (11731650_a_at) / Fold change /veh LOC100653217 /// NTM (11731650_a_at) / RFU MAPK11 (11762145_a_at) / Fold change /veh MAPK11 (11762145_a_at) / RFU FIZ1 (11724087_x_at) / Fold change /veh FIZ1 (11724087_x_at) / RFU OASL (11726364_x_at) / Fold change /veh OASL (11726364_x_at) / RFU SOX15 (11748057_x_at) / Fold change /veh SOX15 (11748057_x_at) / RFU CD79A (11719716_a_at) / Fold change /veh CD79A (11719716_a_at) / RFU HIST1H1D (11736915_at) / Fold change /veh HIST1H1D (11736915_at) / RFU CASKIN2 (11723855_a_at) / Fold change /veh CASKIN2 (11723855_a_at) / RFU LOC730098 (11760151_x_at) / Fold change /veh LOC730098 (11760151_x_at) / RFU OR4N2 (11742367_at) / Fold change /veh OR4N2 (11742367_at) / RFU PRRT2 (11749266_a_at) / Fold change /veh PRRT2 (11749266_a_at) / RFU SNX32 (11753110_a_at) / Fold change /veh SNX32 (11753110_a_at) / RFU CDHR5 (11726645_a_at) / Fold change /veh CDHR5 (11726645_a_at) / RFU RCAN1 (11760418_a_at) / Fold change /veh RCAN1 (11760418_a_at) / RFU FAM167A (11723789_a_at) / Fold change /veh FAM167A (11723789_a_at) / RFU FAM26E (11764081_at) / Fold change /veh FAM26E (11764081_at) / RFU ISYNA1 (11749810_s_at) / Fold change /veh ISYNA1 (11749810_s_at) / RFU ACY1 (11761880_at) / Fold change /veh ACY1 (11761880_at) / RFU 11764098_at / Fold change /veh 11764098_at / RFU SAMD14 (11745864_x_at) / Fold change /veh SAMD14 (11745864_x_at) / RFU NPB (11741838_a_at) / Fold change /veh NPB (11741838_a_at) / RFU TMPRSS6 (11731388_a_at) / Fold change /veh TMPRSS6 (11731388_a_at) / RFU KRTAP10-2 (11738614_at) / Fold change /veh KRTAP10-2 (11738614_at) / RFU ARHGAP8 /// PRR5-ARHGAP8 (11727945_x_at) / Fold change /veh ARHGAP8 /// PRR5-ARHGAP8 (11727945_x_at) / RFU KRTAP5-7 /// NADSYN1 (11734609_at) / Fold change /veh KRTAP5-7 /// NADSYN1 (11734609_at) / RFU RASL12 (11751679_a_at) / Fold change /veh RASL12 (11751679_a_at) / RFU CDKN2B (11736163_a_at) / Fold change /veh CDKN2B (11736163_a_at) / RFU PRF1 (11729649_at) / Fold change /veh PRF1 (11729649_at) / RFU, ZNF638 /// ZNF638-IT1 / Fold change vs veh, ZNF638 /// ZNF638-IT1 / RFU, PANK3 / Fold change vs veh, PANK3 / RFU, SH3YL1 / Fold change vs veh, SH3YL1 / RFU, ZEB2 / Fold change vs veh, ZEB2 / RFU, NRIP1 / Fold change vs veh, NRIP1 / RFU, PTTG1IP / Fold change vs veh, PTTG1IP / RFU, CAPN2 / Fold change vs veh, CAPN2 / RFU, MED14 / Fold change vs veh, MED14 / RFU, SNORA58 / Fold change vs veh, SNORA58 / RFU, C1orf63 / Fold change vs veh, C1orf63 / RFU, LRRFIP1 / Fold change vs veh, LRRFIP1 / RFU, NDUFAF7 / Fold change vs veh, NDUFAF7 / RFU, SLC12A2 / Fold change vs veh, SLC12A2 / RFU, IBTK / Fold change vs veh, IBTK / RFU, ESF1 / Fold change vs veh, ESF1 / Fold change vs veh, TMEM50B / RFU, TAOK1 / Fold change vs veh, TAOK1 / RFU, ACBD3 / Fold change vs veh, ACBD3 / RFU, TMA16 / Fold change vs veh, TMA16 / RFU, RWDD3 / Fold change vs veh, RWDD3 / RFU, BCAT1 / Fold change vs veh, BCAT1 / RFU, EDEM3 / Fold change vs veh, EDEM3 / RFU, TMEM33 / Fold change vs veh, TMEM33 / RFU, WDR75 / Fold change vs veh, WDR75 / RFU, AHCTF1 / Fold change vs veh, AHCTF1 / RFU, TFRC / Fold change vs veh, TFRC / RFU, ZDHHC17 / Fold change vs veh, ZDHHC17 / RFU, NOM1 / Fold change vs veh, NOM1 / RFU, ARL8B / Fold change vs veh, ARL8B / RFU, ZBTB11 / Fold change vs veh, ZBTB11 / RFU, TAMM41 / Fold change vs veh, TAMM41 / RFU, KIAA1704 /// LOC100996395 / Fold change vs veh, KIAA1704 /// LOC100996395 / RFU, ING1 / Fold change vs veh, ING1 / RFU, TRMT61B / Fold change vs veh, TRMT61B / RFU, FUBP3 / Fold change vs veh, FUBP3 / RFU, TP53 / Fold change vs veh, TP53 / RFU, TNKS2 / Fold change vs veh, TNKS2 / RFU, ZFP14 / Fold change vs veh, ZFP14 / RFU, ACTR2 / Fold change vs veh, ACTR2 / RFU, PPP3R1 / Fold change vs veh, PPP3R1 / RFU, PIK3R1 / Fold change vs veh, PIK3R1 / RFU, HNRNPA1 / Fold change vs veh, HNRNPA1 / RFU, RNF170 / Fold change vs veh, RNF170 / RFU, ZNF28 / Fold change vs veh, ZNF28 / RFU, RNGTT / Fold change vs veh, RNGTT / RFU, OGT / Fold change vs veh, OGT / RFU, BRD1 / Fold change vs veh, BRD1 / RFU, MARS / Fold change vs veh, MARS / RFU, ZNF655 / Fold change vs veh, ZNF655 / RFU, FAHD1 / Fold change vs veh, FAHD1 / RFU, BDP1 / Fold change vs veh, BDP1 / RFU, LRRCC1 / Fold change vs veh, LRRCC1 / RFU, ARID1A / Fold change vs veh, ARID1A / RFU, ZNF146 / Fold change vs veh, ZNF146 / RFU, ZNF330 / Fold change vs veh, ZNF330 / RFU, GPN3 / Fold change vs veh, GPN3 / RFU, C9orf123 / Fold change vs veh, C9orf123 / RFU, N4BP2L2 / Fold change vs veh, N4BP2L2 / RFU, ARFIP1 / Fold change vs veh, ARFIP1 / RFU, FAM179B / Fold change vs veh, FAM179B / RFU, BCL10 / Fold change vs veh, BCL10 / RFU, UHRF1BP1L / Fold change vs veh, UHRF1BP1L / RFU, BET1 / Fold change vs veh, BET1 / RFU, CNOT2 / Fold change vs veh, CNOT2 / RFU, ZNF268 / Fold change vs veh, ZNF268 / Fold change vs veh, ZNF507 / RFU, DGCR2 / Fold change vs veh, DGCR2 / RFU, WDSUB1 / Fold change vs veh, WDSUB1 / Fold change vs veh, HSP90B1 /// MIR3652 / RFU, ADSS / Fold change vs veh, ADSS / RFU, GK / Fold change vs veh, GK / RFU, ZNF148 / Fold change vs veh, ZNF148 / RFU, TAF9 / Fold change vs veh, TAF9 / RFU, SLC1A5 / Fold change vs veh, SLC1A5 / RFU, SLMO2 / Fold change vs veh, SLMO2 / RFU, ABCC4 / Fold change vs veh, ABCC4 / RFU, LOC101060439 /// RAP1B / Fold change vs veh, LOC101060439 /// RAP1B / RFU, RFX7 / Fold change vs veh, RFX7 / RFU, GTPBP10 / Fold change vs veh, GTPBP10 / RFU, CNEP1R1 / Fold change vs veh, CNEP1R1 / RFU, BIVM-ERCC5 /// ERCC5 / Fold change vs veh, BIVM-ERCC5 /// ERCC5 / RFU, ILF3 / Fold change vs veh, ILF3 / RFU 11762660_at / Fold change /veh 11762660_at / RFU VCAN (11757783_s_at) / Fold change /veh VCAN (11757783_s_at) / RFU DDX43 (11728927_at) / Fold change /veh DDX43 (11728927_at) / RFU KRT8 (11758188_x_at) / Fold change /veh KRT8 (11758188_x_at) / RFU NKD1 (11759106_at) / Fold change /veh NKD1 (11759106_at) / RFU SRD5A1 (11742802_a_at) / Fold change /veh SRD5A1 (11742802_a_at) / RFU TPSAB1 /// TPSB2 (11721975_s_at) / Fold change /veh TPSAB1 /// TPSB2 (11721975_s_at) / RFU GSTM3 (11746129_a_at) / Fold change /veh GSTM3 (11746129_a_at) / RFU IL23R (11737362_x_at) / Fold change /veh IL23R (11737362_x_at) / RFU TMEM51 (11727254_a_at) / Fold change /veh TMEM51 (11727254_a_at) / RFU PIWIL2 (11732686_x_at) / Fold change /veh PIWIL2 (11732686_x_at) / RFU ORM1 (11744905_x_at) / Fold change /veh ORM1 (11744905_x_at) / RFU CCDC152 (11743942_at) / Fold change /veh CCDC152 (11743942_at) / RFU ECM1 (11717891_a_at) / Fold change /veh ECM1 (11717891_a_at) / RFU IL23R (11748794_a_at) / Fold change /veh IL23R (11748794_a_at) / RFU TNFAIP8L3 (11732012_x_at) / Fold change /veh TNFAIP8L3 (11732012_x_at) / RFU MBOAT4 (11741988_at) / Fold change /veh MBOAT4 (11741988_at) / RFU 11764193_at / Fold change /veh 11764193_at / RFU TMEM53 (11763286_at) / Fold change /veh TMEM53 (11763286_at) / RFU MAGEB2 (11727129_at) / Fold change /veh MAGEB2 (11727129_at) / RFU TMEM200A (11744735_a_at) / Fold change /veh TMEM200A (11744735_a_at) / RFU CCDC152 (11751479_a_at) / Fold change /veh CCDC152 (11751479_a_at) / RFU FAM211A (11726209_a_at) / Fold change /veh FAM211A (11726209_a_at) / RFU RGS16 (11746705_a_at) / Fold change /veh RGS16 (11746705_a_at) / RFU VCAN (11755009_s_at) / Fold change /veh VCAN (11755009_s_at) / RFU RHOB (11743442_s_at) / Fold change /veh RHOB (11743442_s_at) / RFU RGS16 (11720943_a_at) / Fold change /veh RGS16 (11720943_a_at) / RFU RGS16 (11720944_at) / Fold change /veh RGS16 (11720944_at) / RFU, VPS4B / Fold change vs veh, VPS4B / RFU, CREB1 / Fold change vs veh, CREB1 / RFU, DNAJC13 / Fold change vs veh, DNAJC13 / RFU, GNAQ / Fold change vs veh, GNAQ / RFU, CDK5R1 / Fold change vs veh, CDK5R1 / RFU, ZRANB3 / Fold change vs veh, ZRANB3 / RFU, CUL4A / Fold change vs veh, CUL4A / RFU, CCNY / Fold change vs veh, CCNY / RFU, UFL1 / Fold change vs veh, UFL1 / RFU, COG3 / Fold change vs veh, COG3 / RFU, DIAPH2 / Fold change vs veh, DIAPH2 / RFU, SKA2 / Fold change vs veh, SKA2 / RFU, AFF3 / Fold change vs veh, AFF3 / RFU, LMF1 / Fold change vs veh, LMF1 / RFU, IPO11 / Fold change vs veh, IPO11 / RFU, DFFB / Fold change vs veh, DFFB / RFU, FOXP1 / Fold change vs veh, FOXP1 / RFU, CARD8 / Fold change vs veh, CARD8 / RFU, STRN3 / Fold change vs veh, STRN3 / RFU, ADK / Fold change vs veh, ADK / RFU, RASSF2 / Fold change vs veh, RASSF2 / RFU, WIPF1 / Fold change vs veh, WIPF1 / RFU, LARP1B / Fold change vs veh, LARP1B / RFU, RASA1 / Fold change vs veh, RASA1 / RFU, RB1 / Fold change vs veh, RB1 / RFU, PPFIA1 / Fold change vs veh, PPFIA1 / RFU, MAT2A / Fold change vs veh, MAT2A / RFU, CCT5 / Fold change vs veh, CCT5 / RFU, WDR92 / Fold change vs veh, WDR92 / RFU, CUX1 / Fold change vs veh, CUX1 / RFU, TTC7A / Fold change vs veh, TTC7A / RFU, TMEM135 / Fold change vs veh, TMEM135 / RFU, DEPTOR / Fold change vs veh, DEPTOR / RFU, CPM / Fold change vs veh, CPM / RFU, DNAJB6 / Fold change vs veh, DNAJB6 / RFU, CACNA2D3 / Fold change vs veh, CACNA2D3 / RFU, DTX4 / Fold change vs veh, DTX4 / RFU, TFCP2 / Fold change vs veh, TFCP2 / RFU, GMCL1 /// GMCL1P1 / Fold change vs veh, GMCL1 /// GMCL1P1 / RFU, AEBP2 / Fold change vs veh, AEBP2 / RFU, SNHG1 /// SNORD22 /// SNORD25 /// SNORD26 /// SNORD27 /// SNORD28 /// SNORD29 /// SNORD31 / Fold change vs veh, SNHG1 /// SNORD22 /// SNORD25 /// SNORD26 /// SNORD27 /// SNORD28 /// SNORD29 /// SNORD31 / Fold change (Aza/veh), C12orf56 (ProbeSet 11735607_a_at) / Fold change (ACY-1035/veh), C12orf56 (ProbeSet 11735607_a_at) / Fold change (Aza/veh), FGFR1OP (ProbeSet 11751329_s_at) / Fold change (ACY-1035/veh), FGFR1OP (ProbeSet 11751329_s_at) / Fold change (Aza/veh), VPS36 (ProbeSet 11739960_a_at) / Fold change (ACY-1035/veh), VPS36 (ProbeSet 11739960_a_at) / RFU SYPL1 (11715823_x_at) / Fold change /veh SYPL1 (11715823_x_at) / RFU IGFBP7 (11715501_s_at) / Fold change /veh IGFBP7 (11715501_s_at) / RFU REEP3 (11722064_at) / Fold change /veh REEP3 (11722064_at) / RFU IGLL1 (11728026_x_at) / Fold change /veh IGLL1 (11728026_x_at): dose or concentration left out as unconfirmed
# Details: ProbeSet 11732277_a_at; LIST D
smiles,measurement,value
Nc1ccc(-c2cccs2)cc1NC(=O)c1ccc2c(c1)cc(C1CC1)n2CCN1CCOCC1 [ACY-1035],"Fold change vs veh, FOXP1",0.94

# Source: paper PMC5218480 (PLoS ONE, 2017)
